Test results taken from the supplement of paper PMC10307832.

Legend:
Test in all cases: relative viability (nuclei count vs DMSO), 5 days (fraction); higher = more cells survive
[1] = compound: CC1(C)CCC(CN2CCN(c3ccc(C(=O)NS(=O)(=O)c4ccc(NCC5CCOCC5)c([N+](=O)[O-])c4)c(Oc4cnc5[nH]ccc5c4)c3)CC2)=C(c2ccc(Cl)cc2)C1 [Venetoclax] + Cc1cc(Nc2cc(N3CCN(C)CC3)nc(Sc3ccc(NC(=O)C4CC4)cc3)n2)n[nH]1 [Tozasertib] (partner 0.1 µM)
Procedure, shortened: (§1)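 Each reported value is a median over duplicate plates. It expresses relative viability: treated-well nuclei count divided by vehicle-well nuclei count. Lung cancer cell lines in 1536-well plates were dosed by pin tool a day after seeding, alone with one drug or with a fixed anchor-drug dose plus five library-drug doses (not always all listed) in √10 steps, and nuclei were counted after 5 days.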

[2] = compound: Cn1cnc2c(F)c(Nc3ccc(Br)cc3Cl)c(C(=O)NOCCO)cc21 [Selumetinib] + N=C(N)NC(=N)NCCc1ccccc1 [Phenformin] (partner 250 µM)
Procedure, shortened: as §1

[3] = compound: CC1(C)CCC(CN2CCN(c3ccc(C(=O)NS(=O)(=O)c4ccc(NCC5CCOCC5)c([N+](=O)[O-])c4)c(Oc4cnc5[nH]ccc5c4)c3)CC2)=C(c2ccc(Cl)cc2)C1 [Venetoclax] + NC(=O)Nc1cc(-c2cccc(F)c2)sc1C(=O)N[C@H]1CCCNC1 [AZD7762] (partner 0.2 µM)
Procedure, shortened: as §1

[4] = compound: CC1(C)CCC(CN2CCN(c3ccc(C(=O)NS(=O)(=O)c4ccc(NCC5CCOCC5)c([N+](=O)[O-])c4)c(Oc4cnc5[nH]ccc5c4)c3)CC2)=C(c2ccc(Cl)cc2)C1 [Venetoclax] + Nc1nc2[nH]cc(CCc3ccc(C(=O)N[C@@H](CCC(=O)O)C(=O)O)cc3)c2c(=O)[nH]1 [Pemetrexed] (partner 0.2 µM)
Procedure, shortened: as §1

Cell Line	relative viability ([1]; first compound 0.01 µM)	relative viability ([1]; first compound 0.03162 µM)	relative viability ([1]; first compound 0.1 µM)	relative viability ([1]; first compound 0.3162 µM)	relative viability ([1]; first compound 1 µM)	relative viability ([2]; first compound 0.02 µM)	relative viability ([2]; first compound 0.06325 µM)	relative viability ([2]; first compound 0.2 µM)	relative viability ([2]; first compound 0.6325 µM)	relative viability ([3]; first compound 0.01 µM)	relative viability ([3]; first compound 0.03162 µM)	relative viability ([3]; first compound 0.1 µM)	relative viability ([3]; first compound 0.3162 µM)	relative viability ([3]; first compound 1 µM)	relative viability ([4]; first compound 0.01 µM)	relative viability ([4]; first compound 0.03162 µM)	relative viability ([4]; first compound 0.1 µM)	relative viability ([4]; first compound 0.3162 µM)	relative viability ([4]; first compound 1 µM)
NCI-H3122	0.422	0.565	0.357	0.392	0.405	0.386	0.305	0.287	0.286	1.07	0.997	0.909	0.954	1.03	0.179	0.2	0.199	0.188	0.198
PC-3 [JPC-3]	0.841	0.909	0.816	0.88	0.853	0.446	0.489	0.473	0.414	0.787	0.828	0.89	0.836	0.744	1.05	1.45	1.18	1.26	1.01
PC-14	0.646	0.601	0.576	0.553	0.531	0.516	0.507	0.529	0.447	0.346	0.361	0.315	0.413	0.301	0.154	0.135	0.13	0.14	0.143
RERF-LC-KJ	0.444	0.504	0.533	0.45	0.443	0.368	0.388	0.422	0.395	0.801	1.09	1.07	1.03	0.945	0.473	0.487	0.45	0.438	0.506
SW 900	0.401	0.55	0.476	0.65	0.386	0.603	0.573	0.416	0.569	0.538	0.696	0.59	0.715	0.668	0.478	0.51	0.465	0.499	0.489
